For assay [1], the system named is AP-1 promoter mediated transcription. Format: cell-based. To be noted: 1 μM, + PMA, 6 h.
Another assay addresses p38α (Homo sapiens, UniProt Q16539). The experiment in a line: Fluorescence polarization. To be noted: p38 Kiapp. Type of assay: binding.
Another assay has as its target JNK1 (Homo sapiens, UniProt P45983). The experiment in a line: Fluorescence polarization. Type of assay: binding. To be noted: JNK1 Kiapp.
A further assay addresses ERK2 (Homo sapiens, UniProt P28482). The experiment in a line: Fluorescence polarization. Format: binding. The settings on record: ERK2 Kiapp, Table 2, different electron withdrawing groups at C2 or cyclopentenone scaffold. (In general: Polarisation of emitted light reports the rotation of a fluorescent probe.)
Setting [2] is: Table 2, different electron withdrawing groups at C2 or cyclopentenone scaffold.

Sequence of JNK1 (P45983 whole entry): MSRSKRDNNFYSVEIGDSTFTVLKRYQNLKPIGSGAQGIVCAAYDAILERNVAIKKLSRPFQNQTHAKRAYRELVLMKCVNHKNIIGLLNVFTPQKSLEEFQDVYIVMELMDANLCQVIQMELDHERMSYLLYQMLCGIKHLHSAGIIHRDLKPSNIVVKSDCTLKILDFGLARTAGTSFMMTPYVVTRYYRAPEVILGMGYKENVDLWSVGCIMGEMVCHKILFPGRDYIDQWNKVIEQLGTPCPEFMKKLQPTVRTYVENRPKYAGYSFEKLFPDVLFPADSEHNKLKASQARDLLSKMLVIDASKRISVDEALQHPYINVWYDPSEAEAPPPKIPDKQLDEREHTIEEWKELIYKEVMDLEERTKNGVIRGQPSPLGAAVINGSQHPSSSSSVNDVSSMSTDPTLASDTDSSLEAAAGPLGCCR
Sequence of p38α (Q16539 whole entry): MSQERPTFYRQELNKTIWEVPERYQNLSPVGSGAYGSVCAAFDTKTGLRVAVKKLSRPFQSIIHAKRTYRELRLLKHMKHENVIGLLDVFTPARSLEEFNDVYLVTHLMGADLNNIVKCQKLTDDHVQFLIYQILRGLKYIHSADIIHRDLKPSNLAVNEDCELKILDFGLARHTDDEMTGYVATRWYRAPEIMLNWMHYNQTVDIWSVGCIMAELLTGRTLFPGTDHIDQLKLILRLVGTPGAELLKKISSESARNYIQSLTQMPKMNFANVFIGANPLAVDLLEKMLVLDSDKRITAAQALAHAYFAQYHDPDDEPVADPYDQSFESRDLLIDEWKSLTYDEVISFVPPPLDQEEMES
Sequence of ERK2 (P28482 whole entry): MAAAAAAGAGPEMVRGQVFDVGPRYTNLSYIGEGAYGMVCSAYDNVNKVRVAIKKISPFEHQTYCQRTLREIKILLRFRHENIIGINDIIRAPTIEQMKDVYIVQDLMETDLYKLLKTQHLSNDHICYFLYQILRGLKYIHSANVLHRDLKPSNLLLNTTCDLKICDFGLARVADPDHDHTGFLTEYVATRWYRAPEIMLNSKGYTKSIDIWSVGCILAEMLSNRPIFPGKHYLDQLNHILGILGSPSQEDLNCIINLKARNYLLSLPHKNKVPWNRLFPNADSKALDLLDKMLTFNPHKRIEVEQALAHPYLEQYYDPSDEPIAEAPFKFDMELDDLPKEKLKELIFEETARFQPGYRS

On to `Oc1ccc(-c2nc(-c3ccncc3)c(-c3ccc(F)cc3)[nH]2)cc1` [SB202190], for which, in assay [1], the “effect on AP-1 mediated transcription” value is “attenuate”.
Regarding `O=C(Nc1ccc2[nH]nc(-c3ccncc3)c2c1)[C@@H]1CCN(CC(=O)N2CCN(c3ccc(-c4ncccn4)cc3)CC2)C1` [SCH772984], in assay [1], the “effect on AP-1 mediated transcription” value is recorded as “attenuate”.
In the case of `C#CCCOC(=O)[C@]1(C)C=C(C(=O)OC(C)(C)C)C(=O)CC1` [29S], the Ki at p38α (Table 4, C4-extended compounds) is 1.1 ± 0.1 µM; at JNK1 (Table 4, C4-extended compounds), 2.4 ± 0.3 µM.
Take `Cc1cc(-c2cccc(-n3cc(COC(=O)[C@]4(C)C=C(C(=O)OC(C)(C)C)C(=O)CC4)nn3)c2)c(C)c2c1CNCC2` [33S]: the Ki at p38α (Table 4, C4-extended compounds) stood at 2.8 ± 0.7 µM; on JNK1 (Table 4, C4-extended compounds), 8.8 ± 2.6 µM.
Regarding `CC1(C)C=C(C(=O)OC(C)(C)C)C(=O)C1` [compound 26], the Ki on ERK2 is 169 ± 8.7 µM; on p38α (setting [2]), 27.4 ± 3.3 µM; on JNK1 (setting [2]), over 200 µM.
For the compound `COC(=O)C1=CC(C)(C)CC1=O` [compound 25], the Ki on ERK2 was 136 ± 14.1 µM; on p38α (setting [2]), 28 ± 2.4 µM; on JNK1 (setting [2]), over 200 µM.
